Like-named read-outs stand apart in the source and are kept apart here.
Columns and labels:
human mOR = human mOR (Homo sapiens (Human), UniProt P35372); test: cell-based
kOR (OPRK1) = kOR (OPRK1) (Homo sapiens (Human), UniProt P41145); test: KOR β-Arrestin antagonist assay (Tango OPRK1-bla U2OS cells); type: cell-based
Source text: KOR β-Arrestin Agonist and Antagonist assays were preformed using the Tango™ OPRK1-bla U2OS cells from Invitrogen and purchased from ThermoFisher, catalog number K1576.

human dOR = human dOR (Homo sapiens (Human), UniProt P41143); test: cell-based; details: dOR cAMP Agonist Assay EC50, CHO Tag-lite human dOR stable cell line; forskolin
Chain of human dOR (P41143 whole entry): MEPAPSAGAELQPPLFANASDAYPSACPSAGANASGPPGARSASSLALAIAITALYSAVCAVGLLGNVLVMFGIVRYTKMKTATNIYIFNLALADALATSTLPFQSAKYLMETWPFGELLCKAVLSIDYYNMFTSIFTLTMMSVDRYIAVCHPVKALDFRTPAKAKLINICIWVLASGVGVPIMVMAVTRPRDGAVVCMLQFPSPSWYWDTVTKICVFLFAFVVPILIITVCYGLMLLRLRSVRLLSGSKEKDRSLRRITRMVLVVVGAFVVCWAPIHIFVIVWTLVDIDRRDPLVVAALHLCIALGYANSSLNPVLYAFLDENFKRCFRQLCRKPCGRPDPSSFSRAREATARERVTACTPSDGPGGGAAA

[1] = CHO Tag-lite human mOR stable cell line, forskolin 4 μM and DAMGO at EC90, read-out: mOR cAMP Antagonist Assay IC50

Chain of human mOR (P35372 whole entry): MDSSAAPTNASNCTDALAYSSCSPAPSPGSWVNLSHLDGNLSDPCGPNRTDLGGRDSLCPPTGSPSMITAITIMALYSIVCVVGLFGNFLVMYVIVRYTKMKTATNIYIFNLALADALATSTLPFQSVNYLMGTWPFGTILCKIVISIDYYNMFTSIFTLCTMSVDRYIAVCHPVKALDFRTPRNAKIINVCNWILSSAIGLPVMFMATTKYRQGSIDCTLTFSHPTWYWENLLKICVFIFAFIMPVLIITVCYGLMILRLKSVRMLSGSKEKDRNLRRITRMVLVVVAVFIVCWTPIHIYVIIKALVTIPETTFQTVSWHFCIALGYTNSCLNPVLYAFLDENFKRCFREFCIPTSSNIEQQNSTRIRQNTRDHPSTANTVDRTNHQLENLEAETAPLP
Chain of kOR (OPRK1) (P41145 whole entry): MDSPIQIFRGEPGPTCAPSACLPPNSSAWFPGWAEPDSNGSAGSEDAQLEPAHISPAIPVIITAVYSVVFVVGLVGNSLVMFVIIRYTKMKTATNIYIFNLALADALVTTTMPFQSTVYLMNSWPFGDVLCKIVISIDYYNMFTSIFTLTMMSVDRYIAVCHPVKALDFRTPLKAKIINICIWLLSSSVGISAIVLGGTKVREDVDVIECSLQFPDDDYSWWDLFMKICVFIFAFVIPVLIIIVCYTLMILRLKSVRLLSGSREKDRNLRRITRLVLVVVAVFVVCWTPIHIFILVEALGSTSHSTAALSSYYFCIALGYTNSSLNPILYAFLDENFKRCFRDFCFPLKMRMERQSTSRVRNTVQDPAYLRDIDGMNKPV

Row | Structure (SMILES) | IC50 (human mOR) [nM] | IC50 (kOR (OPRK1)) [nM] | IC50 (human mOR; [1]) [nM] | EC50 (human dOR) [nM]
1 | CN(C)[C@H](CNC(=O)C[C@H](c1cccnc1)C1(C(F)(F)F)CC1)Cc1ccc(C(N)=O)c(F)c1Cl [Compound 18, 3-chloro-4-[(2S)-2-(dimethylamino)-3-[(3R)-3-(pyridin-3-yl)-3-[1-(trifluoromethyl)cyclopropyl]propanamido]propyl]-2-fluorobenzamide] | > 3000 | < 300 | – | –
2 | CN(C)[C@H](CNC(=O)CC(c1ncc(Cl)cn1)C1(C(F)(F)F)CC1)Cc1ccc(C(N)=O)c(F)c1Cl (stereo partly drawn) [Compound 22, 3-chloro-4-[(2S)-3-[3-(5-chloropyrimidin-2-yl)-3-[1-(trifluoromethyl)cyclopropyl]propanamido]-2-(dimethylamino)propyl]-2-fluorobenzamide] | – | < 300 | < 300 | –
3 | CN1Cc2cc(O)ccc2C[C@H]1CNC(=O)C[C@H](c1ccccc1)C(C)(C)C [Compound 323, (S)-N-(((S)-7-hydroxy-2-methyl-1,2,3,4-tetrahydroisoquinolin-3-yl)methyl)-4,4-dimethyl-3-phenylpentanamide] | < 300 | – | – | < 300
4 | CC(C)[C@H](CC(=O)NC[C@H](Cc1ccc(C(N)=O)cc1)N(C)C)c1ccccc1 [Compound 94, 4-[(2S)-2-(dimethylamino)-3-[(3S)-4-methyl-3-phenylpentanamido]propyl]benzamide] | < 300 | – | – | < 300
5 | CNC(=O)c1ccc(C[C@@H](CNC(=O)C[C@@H](CC(C)C)c2ccccc2)N(C)C)cc1F [Compound 160, 4-((S)-2-(dimethylamino)-3-((R)-5-methyl-3-phenylhexanamido)propyl)-2-fluoro-N-methylbenzamide] | < 300 | – | – | < 300
6 | C[C@H](CC(=O)NC[C@H](Cc1ccc2[nH]ncc2c1)N(C)C)c1cccc(F)c1 [Compound 215, (R)-N-((S)-2-(dimethylamino)-3-(1H-indazol-5-yl)propyl)-3-(3-fluorophenyl)butanamide] | – | – | < 300 | 300 to 3000
7 | Cc1cc(C(N)=O)cc(C)c1C[C@@H](CNC(=O)C[C@H](CC(C)C)c1ccccc1)N(C)C [Compound 9, 4-[(2S)-2-(dimethylamino)-3-[(3S)-5-methyl-3-phenylhexanamido]propyl]-3,5-dimethylbenzamide] | < 300 | – | – | > 3000
8 | CC(C)C[C@@H](CC(=O)NC[C@H](Cc1ccc2[nH]ncc2c1)N(C)C)c1ccccc1 [Compound 214, (S)-N-((S)-2-(dimethylamino)-3-(1H-indazol-5-yl)propyl)-5-methyl-3-phenylhexanamide] | – | – | < 300 | < 300
9 | CNC(=O)c1cc(C)c(C[C@@H](CNC(=O)C[C@@H](c2ccccc2)C(C)(C)C)N(C)C)cc1F [Compound 146, 4-((S)-3-((R)-4,4-dimethyl-3-phenylpentanamido)-2-(dimethylamino)propyl)-2-fluoro-N,5-dimethylbenzamide] | < 300 | – | – | > 3000
10 | Cc1cc(C(N)=O)cc(C)c1C[C@@H](CNC(=O)C[C@H](c1ccccc1)C(C)(C)C)N(C)C [Compound 13, 4-[(2S)-3-[(3S)-4,4-dimethyl-3-phenylpentanamido]-2-(dimethylamino)propyl]-3,5-dimethylbenzamide] | < 300 | – | – | > 3000
11 | CNC(=O)c1cc(F)c(C[C@@H](CNC(=O)C[C@H](c2ccccc2)C(C)(C)C)N(C)C)cc1F [Compound 104, 4-((S)-3-((S)-4,4-dimethyl-3-phenylpentanamido)-2-(dimethylamino)propyl)-2,5-difluoro-N-methylbenzamide] | < 300 | – | – | 300 to 3000
12 | CC(C)C[C@@H](CC(=O)NC[C@H](Cc1ccc2c(c1)CC(=O)N2)N(C)C)c1ccccc1 [Compound 183, (S)-N-((S)-2-(dimethylamino)-3-(2-oxoindolin-5-yl)propyl)-5-methyl-3-phenylhexanamide] | < 300 | – | – | > 3000
13 | CC(C)[C@@H](CC(=O)NC[C@H](Cc1ccc2[nH]c(=O)oc2c1)N(C)C)c1ccccc1 [Compound 173, (R)-N-((S)-2-(dimethylamino)-3-(2-oxo-2,3-dihydrobenzo[d]oxazol-6-yl)propyl)-4-methyl-3-phenylpentanamide] | < 300 | – | – | < 300
14 | CNC(=O)c1ccc(C[C@@H](CNC(=O)C[C@H](c2ccccc2)C(C)(C)C)N(C)C)cc1Cl [Compound 150, 2-chloro-4-((S)-3-((S)-4,4-dimethyl-3-phenylpentanamido)-2-(dimethylamino)propyl)-N-methylbenzamide] | < 300 | – | – | > 3000
15 | CN(C)[C@H](CNC(=O)C[C@H](c1ccccc1)C(C)(C)C)Cc1ccc(C(=O)NCC(F)(F)F)c(F)c1 [Compound 101, 4-((S)-3-((S)-4,4-dimethyl-3-phenylpentanamido)-2-(dimethylamino)propyl)-2-fluoro-N-(2,2,2-trifluoroethyl)benzamide] | – | – | < 300 | 300 to 3000
16 | CNC(=O)c1ccc(C[C@@H](CNC(=O)C[C@H](c2ccc(Cl)cn2)C2(C(F)(F)F)CC2)N(C)C)c(C)c1 [Compound 138, 4-((S)-3-((S)-3-(5-chloropyridin-2-yl)-3-(1-(trifluoromethyl)cyclopropyl)propanamido)-2-(dimethylamino)propyl)-N,3-dimethylbenzamide] | – | < 300 | – | –

Row | Structure (SMILES) | IC50 (human mOR) [nM] | IC50 (kOR (OPRK1)) [nM] | IC50 (human mOR; [1]) [nM] | EC50 (human dOR) [nM]
17 | C[C@@H](CC(=O)NC[C@H](Cc1ccc2[nH]ncc2c1)N(C)C)c1ccc(Cl)cc1 [Compound 220, (S)-3-(4-chlorophenyl)-N-((S)-2-(dimethylamino)-3-(1H-indazol-5-yl)propyl)butanamide] | < 300 | – | – | > 3000
18 | C[C@@H](CC(=O)NC[C@H](Cc1ccc2[nH]ncc2c1)N(C)C)c1ccccn1 [Compound 216, (S)-N-((S)-2-(dimethylamino)-3-(1H-indazol-5-yl)propyl)-3-(pyridin-2-yl)butanamide] | – | – | < 300 | 300 to 3000
19 | C[C@@H](CC(=O)NC[C@H](Cc1ccc2c(c1)OCC(=O)N2)N(C)C)c1ccccc1 [Compound 187, (S)-N-((S)-2-(dimethylamino)-3-(3-oxo-3,4-dihydro-2H-benzo[b][1,4]oxazin-7-yl)propyl)-3-phenylbutanamide] | < 300 | – | – | < 300
20 | CN(C)[C@H](CNC(=O)C[C@H](c1ccccc1)C1CC1)Cc1ccc(O)cc1Cl [Compound 263, (S)-N-((S)-3-(2-chloro-4-hydroxyphenyl)-2-(dimethylamino)propyl)-3-cyclopropyl-3-phenylpropanamide] | < 300 | – | – | < 300
21 | CN(C)[C@H](CNC(=O)C[C@@H](c1ccccc1)C1CC1)Cc1ccc2[nH]c(=O)oc2c1 [Compound 178, (R)-3-cyclopropyl-N-((S)-2-(dimethylamino)-3-(2-oxo-2,3-dihydrobenzo[d]oxazol-6-yl)propyl)-3-phenylpropanamide] | < 300 | – | – | 300 to 3000
22 | CN(C)[C@H](CNC(=O)C[C@@H](c1ccccc1)C(C)(C)C)Cc1ccc(C(N)=O)cc1 [Compound 93, 4-[(2S)-3-[(3R)-4,4-dimethyl-3-phenylpentanamido]-2-(dimethylamino)propyl]benzamide] | < 300 | – | – | < 300
23 | CNC(=O)c1ccc(C[C@@H](CNC(=O)C[C@H](c2ccccc2)C(C)C)N(C)C)cc1Cl [Compound 148, 2-chloro-4-((S)-2-(dimethylamino)-3-((S)-4-methyl-3-phenylpentanamido)propyl)-N-methylbenzamide] | 300 to 3000 | – | – | 300 to 3000
24 | CNC(=O)c1ccc(C[C@@H](CNC(=O)C[C@@H](c2ccccc2)C(C)C)N(C)C)cc1F [Compound 162, 4-((S)-2-(dimethylamino)-3-((R)-4-methyl-3-phenylpentanamido)propyl)-2-fluoro-N-methylbenzamide] | < 300 | – | – | 300 to 3000
25 | CNC(=O)c1ccc(C[C@@H](CNC(=O)C[C@@H](c2ccc(Cl)cn2)C2(C(F)(F)F)CC2)N(C)C)c(C)c1 [Compound 137, 4-((S)-3-((R)-3-(5-chloropyridin-2-yl)-3-(1-(trifluoromethyl)cyclopropyl)propanamido)-2-(dimethylamino)propyl)-N,3-dimethylbenzamide] | – | < 300 | – | –
26 | CNC(=O)c1ccc(C[C@@H](CNC(=O)C[C@H](c2ccccc2)C(C)(C)C)N(C)C)cc1F [Compound 158, 4-((S)-3-((S)-4,4-dimethyl-3-phenylpentanamido)-2-(dimethylamino)propyl)-2-fluoro-N-methylbenzamide] | < 300 | – | – | > 3000
27 | CN(C)[C@H](CNC(=O)C[C@H](c1ccccc1)C1CC1)Cc1ccc2[nH]c(=O)oc2c1 [Compound 177, (S)-3-cyclopropyl-N-((S)-2-(dimethylamino)-3-(2-oxo-2,3-dihydrobenzo[d]oxazol-6-yl)propyl)-3-phenylpropanamide] | < 300 | – | – | 300 to 3000
28 | CNC(=O)c1ccc(C[C@@H](CNC(=O)C[C@@H](CC(C)C)c2ccccc2)N(C)C)cc1Cl [Compound 147, 2-chloro-4-((S)-2-(dimethylamino)-3-((R)-5-methyl-3-phenylhexanamido)propyl)-N-methylbenzamide] | < 300 | – | – | < 300
29 | C[C@@H](CC(=O)NC[C@H](Cc1ccc2[nH]ncc2c1)N(C)C)c1ccc(F)cc1 [Compound 218, (S)-N-((S)-2-(dimethylamino)-3-(1H-indazol-5-yl)propyl)-3-(4-fluorophenyl)butanamide] | < 300 | – | – | > 3000
30 | CN(C)[C@H](CNC(=O)C[C@@H](c1ccccc1)C1CC1)Cc1ccc2c(c1)CC(=O)N2 [Compound 186, (R)-3-cyclopropyl-N-((S)-2-(dimethylamino)-3-(2-oxoindolin-5-yl)propyl)-3-phenylpropanamide] | < 300 | – | – | 300 to 3000
31 | CNC(=O)c1ccc(C[C@@H](CNC(=O)C[C@H](C)c2ccccn2)N(C)C)cc1F [Compound 163, 4-((S)-2-(dimethylamino)-3-((S)-3-(pyridin-2-yl)butanamido)propyl)-2-fluoro-N-methylbenzamide] | < 300 | – | – | > 3000

— US11634396B2 (priority 2021, dated 2023)
